Data published in US20130202594A1, “ALK1 Antagonists and Their Uses in Treating Renal Cell Carcinoma” (priority 2012, published 2013).
“Also recorded” adds a separate entry of the source.

How the values were obtained:
GDF5 = biological target: T1, GDF5 (Homo sapiens, UniProt P43026); assay: Biacore binding to hALK1-Fc: GDF5
T1 sequence (P43026 382-501): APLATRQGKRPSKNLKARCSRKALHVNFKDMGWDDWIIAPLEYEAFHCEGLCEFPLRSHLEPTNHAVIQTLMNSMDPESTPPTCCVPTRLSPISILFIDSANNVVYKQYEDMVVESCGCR
Protocol: (§1) ALK1 is a type 1 receptor for ligands of the TGFβ family. Multiple members of the TGFβ family were tested for binding to a human ALK1-Fc fusion protein, using a Biacore™ system.

GDF7 = biological target: T2, GDF7 (Homo sapiens, UniProt Q7Z4P5); assay: Biacore binding to hALK1-Fc: GDF7
T2 sequence (Q7Z4P5 322-450): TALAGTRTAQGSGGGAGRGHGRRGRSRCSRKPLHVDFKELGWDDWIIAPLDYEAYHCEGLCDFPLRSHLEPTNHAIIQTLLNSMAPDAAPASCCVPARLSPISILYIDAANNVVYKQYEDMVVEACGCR
Protocol: as §1

GDF8 = GDF8 (Homo sapiens, UniProt O14793); assay: Biacore binding to hALK1-Fc: GDF8
Protocol: as §1

BMP4 = biological target: T3, BMP4 (Homo sapiens, UniProt P12644); assay: Biacore binding to hALK1-Fc: BMP4
T3 sequence (P12644 293-408): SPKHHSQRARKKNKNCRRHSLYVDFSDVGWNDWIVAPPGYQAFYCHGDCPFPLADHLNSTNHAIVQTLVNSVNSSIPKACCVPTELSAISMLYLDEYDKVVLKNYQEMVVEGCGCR
Protocol: as §1

[1] = test system: BMP-9 mediated Smad1/5/8 signaling in HMVEC cells; assay: SBE4-luc luciferase reporter of BMP-9 mediated Smad1/5/8 signaling in HMVEC cells; type: cell-based, human; settings: 10 μg/ml, rhBMP-9 50 ng/ml
Protocol: Using a luciferase reporter construct under the control of four sequential consensus SBE sites (SBE4-luc), which are responsive to Smad1/5/8-mediated signaling, we measured BMP-9 mediated activity in the presence and absence of hALK1-Fc drug or neutralizing ALK1 specific monoclonal antibody in HMVEC cells. HMVEC cells were stimulated with rhBMP-9 (50 ng/ml), which induced Smad1/5/8-mediated transcriptional activation, evidenced here by the increase in SBE4-luc modulated transcriptional upregulation.

[2] = test system: angiogenesis in chick chorioallantoic membrane; assay: CAM (chick chorioallantoic membrane) angiogenesis assay; type: in vivo
Description: In preferred embodiments, an ALK1 ECD polypeptide binds to one or more of GDF5, GDF6, GDF7, BMP9 and BMP10. […] Binding may be assessed using purified proteins in solution or in a surface plasmon resonance system, such as a Biacore™ system. […] Bioassays for angiogenesis inhibitory activity include the chick chorioallantoic membrane (CAM) assay, the mouse corneal micropocket assay, or an assay known in the art for measuring the effect of administering isolated or synthesized proteins on implanted tumors. The CAM assay is described by O'Reilly, et al., in “Angiogenic Regulation of Metastatic Growth” Cell, 1994; 79 (2):315-328. Briefly, 3 day old chicken embryos with intact yolks are separated from the egg and placed in a petri dish. After 3 days of incubation, a methylcellulose disc containing the protein to be tested is applied to the CAM of individual embryos. After 48 hours of incubation, the embryos and CAMs are observed to determine whether endothelial growth has been inhibited. The mouse corneal micropocket assay involves implanting a growth factor-containing pellet, along with another pellet containing the suspected endothelial growth inhibitor, in the cornea of a mouse and observing the pattern of capillaries that are elaborated in the cornea. Other assays are described in the Examples.
VEGF and FGF are well-known to stimulate angiogenesis. A CAM (chick chorioallantoic membrane) assay system was used to assess the angiogenic effects of GDF7.
ALK1-Fc fusions were tested for anti-angiogenic activity in the CAM assay.
ALK1-Fc proteins and a commercially available, anti-angiogenic anti-VEGF monoclonal antibody were compared in the CAM assay. The ALK1-Fc proteins had similar potency as compared to anti-VEGF. The anti-VEGF antibody bevacizumab is currently used in the treatment of cancer and macular degeneration in humans.

MDA-MB-231 cell line = assay: MDA-MB-231-Luc orthotopic breast cancer xenograft; type: in vivo, mouse; settings: similar experiment; dose levels as low as 3 mg/kg
Description: The MDA-MB-231 breast cancer cell line (derived from ER− cells) was stably transfected with the luciferase gene to allow for the in vivo detection of tumor growth and potential metastasis. In this study, 1×10^6 MDA-MB-231-Luc cells were implanted orthotopically in the mammary fat pad of athymic nude mice (Harlan). Tumor progression was followed by bioluminescent detection using an IVIS Spectrum imaging system (Caliper Life Sciences). An increase in the luminescence (number of photons detected) corresponds to an increase in tumor burden.
Thirty female nude mice were injected with 1×10^6 tumor cells into the mammary fat pad. Three days after tumor implantation the mice were treated with either vehicle control or mALK1-Fc (30 mg/kg) twice per week by subcutaneous (SC) injection. […] This may be expected of an antiangiogenic compound in that tumors may be able to survive to a certain size before requiring new blood vessel formation to support continued growth.

A498 cells = assay: A498 human RCC tumor xenograft model; type: in vivo, mouse; settings: for tumor growth, single agent: 10 mg/kg IP 3 times per week, vs Fc
Protocol: A498 cells, a VHL-deficient human RCC cell line (see Iliopoulos et al., Nature Medicine 1995; 1:822-6), was obtained from the American Type Culture Collection, and cultured in Eagle's minimal essential medium. Media was supplemented with 2 mmol/L L-glutamine, 10% FCS, and 1% streptomycin (50 μg/mL), and cells were cultured at 37° C. with 5% CO2. […] cells were harvested from subconfluent cultures by a brief exposure to 0.25% trypsin and 0.02% EDTA. Trypsinization was stopped with medium containing 10% fetal bovine serum, and the cells were washed once in serum-free medium and resuspended in PBS. Only suspensions consisting of single cells with >90% viability were used for the injections.
To establish human RCC xenografts, A498 tumor cells were injected subcutaneously (1×10^7 cells) into the flanks of 6- to 8-week-old female athymic nude/beige mice (Charles River Laboratories) that were of 20 g average body weight. Tumors developed in >80% of the mice and were usually visible within a few days of implantation. Mice were treated with Fc or ALK-Fc when the tumors had grown to a diameter of 12 mm. ALK-Fc (10 mg/kg) was administered 3 times per week intraperitoneally. Tumors were measured daily while mice were on treatment.
A498 cell culture and xenograft establishment was performed as described in Example 14. Mice were treated with vehicle plus Fc, sunitinib plus Fc, vehicle plus ALK-Fc, or subitinib plus ALK-Fc when the tumors had grown to a diameter of 12 mm. Sunitinib (53.6 mg/kg; Pfizer) was administered 6 of 7 days per week by gavage beginning. ALK1-Fc (10 mg/kg) was administered 3 times per week intraperitoneally. Tumors were measured daily while mice were on treatment.

- Kd (GDF5): ~50 nM
- Kd (GDF7): ~50 nM
- binding to hALK1-Fc (GDF8): failed to show substantial binding
Substance: hALK1-Fc: extracellular domain of human ALK1 (amino acids 22-120) fused to a human IgG1 Fc with a minimal linker (SEQ ID NO:3/14)
- binding to hALK1-Fc (BMP4): failed to show substantial binding; also recorded: only limited binding
- diminished transcriptional response (SBE4-luc) [1]: ~60%
- anti-angiogenic effect compared with anti-VEGF monoclonal antibody [2]: comparable to the effects of the anti-VEGF antibody
- anti-angiogenic effect on angiogenesis stimulated by VEGF, FGF and GDF7 [2]: inhibits angiogenesis stimulated by VEGF, FGF and GDF7
- tumor progression (bioluminescence) (MDA-MB-231 cell line): similar, if slightly lesser, effects
- tumor growth, single agent (A498 cells): inhibit tumor growth as a single agent
- tumor growth, single agent (A498 cells; listed as ALK-Fc): dramatically slowed tumor growth
- effect on tumor growth inhibiting activity of sunitinib (A498 cells; administered in combination with sunitinib): substantially increased the tumor growth inhibiting activity of sunitinib
- tumor growth (A498 cells; combination study, sunitinib 53.6 mg/kg gavage, ALK1-Fc 10 mg/kg IP): slowed tumor growth
